EC50, IC50 and Emax data for 42 molecules are collected here from ChEMBL document CHEMBL2429761, “Discovery of ML314, a Brain Penetrant Non-Peptidic β-Arrestin Biased Agonist of the Neurotensin NTR1 Receptor” (ACS Med Chem Lett, 2013).

In experiment [1] the target is G-protein coupled receptor 35 (Homo sapiens, UniProt Q9HC97). The experiment is described as follows: Agonist activity at GPR35 (unknown origin) expressed in human U2OS cells coexpressing beta-arrestin by GFP reporter gene assay. Type of experiment: cell-based. On the technique in general: A reporter such as luciferase makes a cellular process visible.
The target in experiment [2] is Neurotensin receptor type 2 (Homo sapiens, UniProt O95665). Kind of experiment: Agonist activity at NTR2 (unknown origin) expressed in human U2OS cells coexpressing beta-arrestin by GFP reporter gene assay. The format is cell-based.
For experiment [3], the target named is T1, Neurotensin receptor type 1 (Homo sapiens, UniProt P30989). The experiment is described as follows: Antagonist activity at NTR1 (unknown origin) expressed in human U2OS cells coexpressing beta-arrestin assessed as inhibition of ML314-induced effect by GFP reporter gene assay.
In experiment [4] the target is T1, Neurotensin receptor type 1.
Description: Displacement of [125I]-neurotensin from NTR1 in HUVEC after 1 hr by gamma counting analysis
The target is the same in experiment [5]. The experiment is described as follows: Agonist activity at NTR1 (unknown origin) expressed in human U2OS cells coexpressing beta-arrestin by GFP reporter gene assay. Type of experiment: cell-based.
For experiment [6] the target is unchanged. The experiment is described as follows: Agonist activity at NTR1 (unknown origin) expressed in CHO cells assessed as stimulation of calcium flux relative to neurotensin (8 to 13). The format is functional, cell-based.
Experiment [7] has the same target. The experiment is described as follows: Agonist activity at NTR1 (unknown origin) expressed in CHOK1 cells by beta-arrestin assay. Type of experiment: cell-based, CHO-K1.

T1 sequence (P30989 whole entry): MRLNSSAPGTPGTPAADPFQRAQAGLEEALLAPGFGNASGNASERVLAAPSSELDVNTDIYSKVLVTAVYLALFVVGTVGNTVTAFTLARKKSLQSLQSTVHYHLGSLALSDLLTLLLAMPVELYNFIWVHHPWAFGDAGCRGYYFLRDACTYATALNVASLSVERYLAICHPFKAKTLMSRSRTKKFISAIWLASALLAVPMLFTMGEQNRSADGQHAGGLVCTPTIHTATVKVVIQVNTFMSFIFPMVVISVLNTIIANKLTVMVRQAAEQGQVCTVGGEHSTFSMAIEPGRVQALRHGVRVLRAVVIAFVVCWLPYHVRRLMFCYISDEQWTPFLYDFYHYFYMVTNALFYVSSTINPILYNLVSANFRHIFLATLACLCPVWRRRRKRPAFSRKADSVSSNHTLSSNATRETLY
G-protein coupled receptor 35, sequence (Q9HC97 whole entry): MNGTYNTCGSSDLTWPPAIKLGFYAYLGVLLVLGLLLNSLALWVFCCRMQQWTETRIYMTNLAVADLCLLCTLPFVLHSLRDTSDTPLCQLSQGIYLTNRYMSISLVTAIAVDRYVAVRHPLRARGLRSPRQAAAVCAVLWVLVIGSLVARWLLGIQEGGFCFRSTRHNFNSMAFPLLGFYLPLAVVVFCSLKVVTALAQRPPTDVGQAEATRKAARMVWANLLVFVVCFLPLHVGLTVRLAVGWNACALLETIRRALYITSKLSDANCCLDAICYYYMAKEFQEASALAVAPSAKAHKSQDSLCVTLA
Neurotensin receptor type 2, sequence (O95665 whole entry): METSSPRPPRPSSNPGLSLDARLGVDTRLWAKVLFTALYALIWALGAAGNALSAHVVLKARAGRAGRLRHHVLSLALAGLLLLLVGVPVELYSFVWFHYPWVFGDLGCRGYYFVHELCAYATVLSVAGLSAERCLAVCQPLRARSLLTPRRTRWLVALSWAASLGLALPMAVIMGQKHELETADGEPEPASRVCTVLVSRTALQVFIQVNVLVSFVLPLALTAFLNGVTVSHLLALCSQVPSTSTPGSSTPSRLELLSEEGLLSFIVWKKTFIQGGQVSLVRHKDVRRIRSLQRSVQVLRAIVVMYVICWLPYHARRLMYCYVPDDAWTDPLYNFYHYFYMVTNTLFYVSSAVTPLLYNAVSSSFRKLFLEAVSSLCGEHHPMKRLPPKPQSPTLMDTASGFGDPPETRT

Broadly, the EC50 is the concentration needed to bring the measured effect to its halfway point. High values mean lower potency in that assay, low ones higher potency in that assay. As to `COc1cc2nc(C3CC3)nc(N3CCN(Cc4ccc(C)cc4)CC3)c2cc1OC`, the results for the EC50 in experiment [1] and in experiment [2] were greater than 40 µM and greater than 80 µM, respectively.
A word on the IC50: it is the midpoint of a concentration-inhibition curve. As for `COc1cccc(OC)c1-c1cc(C(=O)NC2(C(=O)O)C3CC4CC(C3)CC2C4)nn1-c1ccc(C(=O)N(C)CCCN(C)C)cc1C(C)C` (stereo unspecified), the IC50 came out at 0.0501 µM in experiment [3] and 0.00024 µM in experiment [4].
Take `COc1cc2nc(C3CC3)nc(N3CCN(S(=O)(=O)c4ccccc4)CC3)c2cc1OC`: the values for the EC50 in experiment [1], in experiment [2] and in experiment [5] were greater than 40 µM, greater than 80 µM and greater than 80 µM, respectively.
With `COc1cc2nc(-c3ccccc3)nc(N3CCN(c4ccccc4OC)CC3)c2cc1OC`, the EC50 in experiment [1] is greater than 40 µM; in experiment [2] it was greater than 80 µM.
In the same order, the values of `COc1cc2nc(-c3ccccc3)nc(N3CCN(c4ccc(F)cc4)CC3)c2cc1OC` are greater than 40 µM and greater than 80 µM.
Take `COc1cc2nc(C3CC3)nc(N3CCN(C(=O)c4ccccc4)CC3)c2cc1OC`: the EC50 was greater than 40 µM in experiment [1] and greater than 80 µM in experiment [2].
For `COc1ccc2nc(C3CC3)nc(N3CCN(c4ccccc4OC)CC3)c2c1` the same measures were greater than 40 µM and greater than 80 µM.
Consider `COc1cc2nc(-c3ccccc3)nc(N3CCN(c4ccccc4F)CC3)c2cc1OC`, for which the EC50 in experiment [1] was greater than 40 µM; in experiment [2], greater than 80 µM; in experiment [5] it was greater than 80 µM.
Take `CCOc1cc2c(N3CCN(c4ccccc4F)CC3)nc(-c3ccccc3)nc2cc1OC`: the EC50 in experiment [1] is greater than 40 µM; in experiment [2] it was greater than 80 µM; in experiment [5] it was greater than 80 µM.
In the case of `CCCc1nc(N2CCN(c3ccccc3OC)CC2)c2cc(OC)c(OC)cc2n1`, the EC50 in experiment [1] was greater than 40 µM; in experiment [2], greater than 80 µM; in experiment [5], 17 µM.
In the case of `COc1cc2nc(C3CC3)nc(N3CCN(c4ccccc4Cl)CC3)c2cc1OC`, the EC50 in experiment [1] is greater than 40 µM; in experiment [2], greater than 80 µM.
With `CCOc1cc2c(N3CCN(c4ccccc4)CC3)nc(-c3ccccc3)nc2cc1OC`, the EC50 in experiment [1] is greater than 40 µM; in experiment [2], greater than 80 µM; in experiment [5], greater than 80 µM.
In the case of `COc1cc2nc(C3CCC3)nc(N3CCN(c4ccccc4OC)CC3)c2cc1OC`, the EC50 in experiment [1] is greater than 40 µM; in experiment [2] it was greater than 80 µM.
One may read the Emax as the maximal effect, on the per cent scale that the assay sets. For `COc1cccc(OC)c1-c1cc(C(=O)N[C@@H](CC(C)C)C(=O)O)nn1-c1ccnc2cc(Cl)ccc12`, the Emax in experiment [6] was 63%. The EC50 in experiment [7] was greater than 33 µM; in experiment [5] it was 0.75 µM.
In the case of `CCOc1ccccc1N1CCN(c2nc(C3CC3)nc3cc(OC)c(OC)cc23)CC1`, the EC50 in experiment [1] is greater than 40 µM; in experiment [2], greater than 80 µM.
In the same order, the values of `COc1ccc2c(N3CCN(c4ccccc4OC)CC3)nc(C3CCC3)nc2c1` are greater than 40 µM and greater than 80 µM.
Take `CCOc1cc2c(N3CCN(c4ccccc4OC)CC3)nc(-c3ccccc3)nc2cc1OC`: the EC50 was greater than 40 µM in experiment [1], greater than 80 µM in experiment [2] and greater than 80 µM in experiment [5].
On to `COc1cc2nc(-c3ccccc3)nc(N3CCN(c4ccccc4)CC3)c2cc1OC`, for which the EC50 was greater than 40 µM in experiment [1], greater than 80 µM in experiment [2] and greater than 80 µM in experiment [5].
Take `COc1cc2nc(C3CC3)nc(N3CCNCC3)c2cc1OC`: the values for the EC50 in experiment [1], in experiment [2] and in experiment [5] were greater than 40 µM, greater than 80 µM and greater than 80 µM, respectively.
Take `COc1cc2nc(C3CCC3)nc(N3CCN(c4ccccc4)CC3)c2cc1OC`: the values for the EC50 in experiment [1], in experiment [2] and in experiment [5] were greater than 40 µM, greater than 80 µM and 12 µM, respectively.
On to `COc1cc2nc(C(C)C)nc(N3CCN(c4ccccc4OC)CC3)c2cc1OC`, for which the EC50 in experiment [1] is greater than 40 µM; in experiment [2], greater than 80 µM; in experiment [5] it was 8 µM.
As to `COc1ccccc1CN1CCN(c2nc(C3CC3)nc3cc(OC)c(OC)cc23)CC1`, the figures for the EC50 in experiment [1] and in experiment [2] were greater than 40 µM and greater than 80 µM, respectively.
In the same order, the values of `COc1cc2nc(C3CC3)nc(N3CCN(C(=O)c4ccccc4OC)CC3)c2cc1OC` are greater than 40 µM and greater than 80 µM.
As for `COc1cc2nc(CCN(C)C)nc(N3CCN(c4ccccc4OC)CC3)c2cc1OC`, the EC50 in experiment [1] is greater than 40 µM; in experiment [2], greater than 80 µM; in experiment [5], greater than 80 µM.
Turning to `COc1ccccc1N1CCN(c2nc(C3CCC3)nc3ccccc23)CC1`, the EC50 in experiment [1] is greater than 40 µM; in experiment [2], greater than 80 µM; in experiment [5], 23 µM.
In the same order, the values of `COc1cc2nc(CC3CC3)nc(N3CCN(c4ccccc4OC)CC3)c2cc1OC` are greater than 40 µM, greater than 80 µM and 14 µM.
As to `COc1ccccc1N1CCN(c2nc(C3CCC3)nc3cc4c(cc23)OCO4)CC1`, the EC50 was greater than 40 µM in experiment [1] and greater than 80 µM in experiment [2].
`COc1cc2nc(-c3ccccc3)nc(N3CCN(c4ccccc4Cl)CC3)c2cc1OC`: the half-maximal effective concentration (EC50) in experiment [1] was greater than 40 µM; in experiment [2], greater than 80 µM; in experiment [5], greater than 80 µM.
Regarding `COc1cc2nc(C3CCC3)nc(N3CCN(c4ccccc4Cl)CC3)c2cc1OC`, the EC50 in experiment [1] was greater than 40 µM; in experiment [2], greater than 80 µM; in experiment [5], 12 µM.
In the same order, the values of `COc1cc2ncnc(N3CCN(c4ccccc4OC)CC3)c2cc1OC` are greater than 40 µM, greater than 80 µM and greater than 80 µM.
In the same order, the values of `CCOc1cc2c(N3CCN(c4ccccc4[N+](=O)[O-])CC3)nc(-c3ccccc3)nc2cc1OC` are greater than 40 µM, greater than 80 µM and 75 µM.
Consider `COc1cc2nc(CCN3CCN(c4ccccc4OC)CC3)nc(N3CCN(c4ccccc4OC)CC3)c2cc1OC`, for which the values for the EC50 in experiment [1] and in experiment [2] were greater than 40 µM and greater than 80 µM, respectively.
With `COc1cc2nc(C)nc(N3CCN(c4ccccc4OC)CC3)c2cc1OC`, the figures for the EC50 in experiment [1], in experiment [2] and in experiment [5] were greater than 40 µM, greater than 80 µM and greater than 80 µM, respectively.
For the molecule `C=Cc1nc(N2CCN(c3ccccc3OC)CC2)c2cc(OC)c(OC)cc2n1`, the EC50 is greater than 40 µM in experiment [1] and greater than 80 µM in experiment [2].
Take `COc1cc2nc(C3CCC3)nc(N3CCN(c4ccccn4)CC3)c2cc1OC`: the EC50 in experiment [1] is greater than 40 µM; in experiment [2], greater than 80 µM; in experiment [5], 26 µM.
Turning to `COc1cc2nc(C3CCC3)nc(N3CCN(c4ccccc4C)CC3)c2cc1OC`, the figures for the EC50 in experiment [1] and in experiment [2] were greater than 40 µM and greater than 80 µM, respectively.
For `CCc1nc(N2CCN(c3ccccc3OC)CC2)c2cc(OC)c(OC)cc2n1` the same measures were greater than 40 µM and greater than 80 µM.
With `COc1cc2nc(Cc3ccccc3)nc(N3CCN(c4ccccc4OC)CC3)c2cc1OC`, the EC50 was greater than 40 µM in experiment [1], greater than 80 µM in experiment [2] and 14 µM in experiment [5].
As to `COc1ccc2nc(C3CCC3)nc(N3CCN(c4ccccc4OC)CC3)c2c1`, the concentration giving a half-maximal response (EC50) was greater than 40 µM in experiment [1] and greater than 80 µM in experiment [2].
With `COc1cc2nc(CC(C)C)nc(N3CCN(c4ccccc4OC)CC3)c2cc1OC`, the EC50 in experiment [1] was greater than 40 µM; in experiment [2] it was greater than 80 µM.
Turning to `COc1cc2nc(C3CCCC3)nc(N3CCN(c4ccccc4OC)CC3)c2cc1OC`, the EC50 in experiment [1] was greater than 40 µM; in experiment [2], greater than 80 µM.
`COc1cc2nc(C3CCC3)nc(N3CCN(c4ccccc4F)CC3)c2cc1OC`: the EC50 in experiment [1] is greater than 40 µM; in experiment [2], greater than 80 µM; in experiment [5], 18 µM.
